Results published in ChEMBL document CHEMBL5131417, “Metabolic installation of macrophage-recruiting glycan ligand on tumor cell surface for in vivo tumor suppression” (Bioorg Med Chem Lett, 2022).
Active and inactive are the calls of the source. The rule behind the calls is not given here.

Key:
B16-F10 [1] = experiment: Antitumor activity against B16-F10 cells implanted in C57BL/6 mouse assessed as reduction in tumor volume at 30 mg/kg, iv dosed on 2nd, 4th, 6th, 8th, 10th, 12th and 14th day post tumor transplantation; type: functional; set-up: scale not given: the % may be the effect or the level left; settings: time 14 day
B16-F10 [2] = experiment: Activation of binding of GFP-expressed mouse B16-F10 cells with mouse RAW264.7 cells at 100 uM incubated for 24 hrs by fluorescence microscopy; type: functional, cell-based
[3] = Toxicity in C57BL/6 mouse assessed as induction of abnormal death at 300 mg/kg, iv measured up to 100 days after injection; type: organism-based; settings: in vivo, 2400 h, time < 100 day
[4] = Toxicity in mouse B16-F10 cells assessed as effect on cell viability at 0.1 to 100 uM incubated for 24 hrs; type: cell-based; settings: b16-f10, 24 h, dose 0.1-100 µM
B16-F10 [5] = experiment: Antitumor activity against B16-F10 cells implanted in C57BL/6 mouse assessed as reduction in size and number of metastasis in lung at 30 mg/kg, iv dosed every day after tumor transplantation; type: functional, organism-based
U-87 MG = experiment: Drug distribution in plasma membrane of human U87 cells at 100 uM incubated for 24 hrs by confocal microscopy; type: ADME, cell-based; settings: u-87mg atcc
[6] = Drug distribution in plasma membrane of mouse B16-F10 cells at 100 uM incubated for 24 hrs by confocal microscopy; type: ADME, cell membranes; settings: b16-f10, 24 h

CC(=O)N[C@H]1[C@H]([C@H](O)[C@H](O)CNC(=O)c2cc3c(s2)-c2ccccc2OC3)O[C@@](O)(C(=O)O)C[C@@H]1O
Activity (B16-F10 [1]): 60%
Activity (B16-F10 [2]): Active
Activity [3]: Non-Toxic
Activity [4]: Non-Toxic
Activity (B16-F10 [5]): Active
Drug uptake (U-87 MG): Active
Drug uptake [6]: Active
